Here are results for 68 molecules from patent US20060252807A1, “Novel ortho-terphenyl inhibitors of p38 kinase and methods of treating inflammatory disorders” (Kalypsys, Inc., priority 2005, published 2006).

A value given as a limit tells only on which side of the number the result lay.

As usually defined, the IC50 is the concentration that inhibits the measured activity by half. Low values mean greater potency, high ones weaker potency.

This experiment deals with T1, active p38 alpha enzyme (Upstate Biotechnology) (Homo sapiens, UniProt Q16539).
T1 construct: purchased Upstate Biotechnology
T1 sequence (Q16539 whole entry): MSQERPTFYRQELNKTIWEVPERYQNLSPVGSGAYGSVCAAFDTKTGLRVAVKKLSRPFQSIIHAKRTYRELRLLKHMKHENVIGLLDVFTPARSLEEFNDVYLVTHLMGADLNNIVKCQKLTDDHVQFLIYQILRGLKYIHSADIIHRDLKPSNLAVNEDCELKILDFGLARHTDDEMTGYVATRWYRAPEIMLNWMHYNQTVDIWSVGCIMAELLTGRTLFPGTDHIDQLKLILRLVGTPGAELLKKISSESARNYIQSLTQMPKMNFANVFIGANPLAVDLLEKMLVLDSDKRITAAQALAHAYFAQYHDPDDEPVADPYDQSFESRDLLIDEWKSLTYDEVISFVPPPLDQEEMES
The experiment is described as follows: p38α biochemical assay (ATP turnover, luminescent detection, Cambrex PKlight). The following applies: p38α kinase; Table 1 Biological Activity. Summed up: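 Luminescent ATP-depletion readout measures total ATP turnover by p38α phosphorylating whole MapkapK2 protein. ATP 1.4 uM final; 30C, 2 h. Compounds delivered from DMSO.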

The molecule `CC1CCC(NCc2onc(-c3ccc(F)cc3)c2-c2nc(C(=O)NC(C)C)cs2)CC1` (centres unmarked) [Example 1420] displayed a 50% inhibitory concentration (IC50) of more than 1 µM.
In the case of `CC(C)NC(=O)c1csc(-c2c(-c3ccc(F)cc3)noc2CNCC2CCCCC2)n1` [Example 1421] it was more than 1 µM; in that of `CC(C)NC(=O)c1csc(-c2c(-c3ccc(F)cc3)noc2CNC2CCCCCC2)n1` [Example 1422], more than 1 µM.
In the case of `CC(C)NC(=O)c1csc(-c2c(-c3ccc(F)cc3)noc2CNC2CCCCC2C)n1` (centres unmarked) [Example 1423] it was more than 1 µM; in that of `CC(C)NC(=O)c1csc(-c2c(-c3ccc(F)cc3)noc2CNCCN2CCCC2)n1` [Example 1424], not above 1 µM; in that of `CC(C)NC(=O)c1csc(-c2c(-c3ccc(F)cc3)noc2CNN2CCN(C)CC2)n1` [Example 1425], more than 1 µM.
With `CCN(CC)CCNCc1onc(-c2ccc(F)cc2)c1-c1nc(C(=O)NC(C)C)cs1` [Example 1426], the IC50 was more than 1 µM.
`Cc1cccc(CNCc2onc(-c3ccc(F)cc3)c2-c2nc(C(=O)NC(C)C)cs2)c1` [Example 1427]: the IC50 is more than 1 µM.
In the case of `CC(C)NC(=O)c1csc(-c2c(-c3ccc(F)cc3)noc2CN[C@@H](C)c2ccccc2)n1` [Example 1428] it was more than 1 µM; in that of `CC(C)NC(=O)c1csc(-c2c(-c3ccc(F)cc3)noc2CN[C@H](C)c2ccccc2)n1` [Example 1429], more than 1 µM.
`CC(C)NC(=O)c1csc(-c2c(-c3ccc(F)cc3)noc2CNCCc2ccccc2)n1` [Example 1430] showed an IC50 of more than 1 µM.
As for `Cc1ccccc1CNCc1onc(-c2ccc(F)cc2)c1-c1nc(C(=O)NC(C)C)cs1` [Example 1431], the IC50 is more than 1 µM.
In the case of `Cc1ccc(CNCc2onc(-c3ccc(F)cc3)c2-c2nc(C(=O)NC(C)C)cs2)cc1` [Example 1432], the concentration for half-maximal inhibition (IC50) was more than 1 µM.
As to `Cc1cnc(CNCc2onc(-c3ccc(F)cc3)c2-c2nc(C(=O)NC(C)C)cs2)cn1` [Example 1433], the half-maximal inhibitory concentration (IC50) was more than 1 µM.
The molecule `CC(C)NC(=O)c1csc(-c2c(-c3ccc(F)cc3)noc2CNCc2cccc(F)c2)n1` [Example 1434] gave an IC50 of more than 1 µM.
The molecule `CC(C)NC(=O)c1csc(-c2c(-c3ccc(F)cc3)noc2CNCc2ccc(F)cc2)n1` [Example 1435] yielded a half-maximal inhibitory concentration (IC50) of more than 1 µM.
In turn, `CC(C)NC(=O)c1csc(-c2c(-c3ccc(F)cc3)noc2CNCc2ccccc2F)n1` [Example 1436] displayed an IC50 of more than 1 µM.
`CC(C)NC(=O)c1csc(-c2c(-c3ccc(F)cc3)noc2CNCCCn2ccnc2)n1` [Example 1437]: the IC50 was more than 1 µM.
In turn, `CC(C)NC(=O)c1csc(-c2c(-c3ccc(F)cc3)noc2CNCCC2CCCN2C)n1` (centres unmarked) [Example 1438] gave a concentration for half-maximal inhibition (IC50) of more than 1 µM.
In the case of `CC(C)NC(=O)c1csc(-c2c(-c3ccc(F)cc3)noc2CNCCN2CCCCC2)n1` [Example 1439], the IC50 is more than 1 µM.
Turning to `CC(C)CCCC(C)NCc1onc(-c2ccc(F)cc2)c1-c1nc(C(=O)NC(C)C)cs1` (centres unmarked) [Example 1440], the concentration for half-maximal inhibition (IC50) is more than 1 µM.
In the case of `CC(C)NC(=O)c1csc(-c2c(-c3ccc(F)cc3)noc2CNCCN2CCOCC2)n1` [Example 1441] it was more than 1 µM.
The molecule `CCOC(=O)CC(C)NCc1onc(-c2ccc(F)cc2)c1-c1nc(C(=O)NC(C)C)cs1` (centres unmarked) [Example 1442] registered an IC50 of more than 1 µM.
In turn, `CC(C)NC(=O)c1csc(-c2c(-c3ccc(F)cc3)noc2CNC2CCc3ccccc32)n1` (centres unmarked) [Example 1443] registered a half-maximal inhibitory concentration (IC50) of more than 1 µM.
For `Cc1ccc(CCNCc2onc(-c3ccc(F)cc3)c2-c2nc(C(=O)NC(C)C)cs2)cc1` [Example 1444], the IC50 is more than 1 µM.
Take `Cc1ccc(C)c(CNCc2onc(-c3ccc(F)cc3)c2-c2nc(C(=O)NC(C)C)cs2)c1` [Example 1445]: the IC50 was more than 1 µM.
Molecule `Cc1ccc([C@H](C)NCc2onc(-c3ccc(F)cc3)c2-c2nc(C(=O)NC(C)C)cs2)cc1` [Example 1446] showed a half-inhibitory concentration (IC50) of more than 1 µM.
In the case of `Cc1ccc([C@@H](C)NCc2onc(-c3ccc(F)cc3)c2-c2nc(C(=O)NC(C)C)cs2)cc1` [Example 1447] it was more than 1 µM; in that of `CC(C)NC(=O)c1csc(-c2c(-c3ccc(F)cc3)noc2CNCC(C)c2ccccc2)n1` (centres unmarked) [Example 1448], more than 1 µM.
For the molecule `CC(C)NC(=O)c1csc(-c2c(-c3ccc(F)cc3)noc2CNCC(C)c2ccccc2)n1` (centres unmarked) [Example 1449], the IC50 is more than 1 µM.
For `CC(C)NC(=O)c1csc(-c2c(-c3ccc(F)cc3)noc2CNCCCc2ccccc2)n1` [Example 1450], the half-inhibitory concentration (IC50) was more than 1 µM.
With `Cc1ccc(CNCc2onc(-c3ccc(F)cc3)c2-c2nc(C(=O)NC(C)C)cs2)cc1C` [Example 1451], the IC50 was more than 1 µM.
`CC(C)NC(=O)c1csc(-c2c(-c3ccc(F)cc3)noc2CNC(C)Cc2ccncc2)n1` (centres unmarked) [Example 1452] gave a 50% inhibitory concentration (IC50) of more than 1 µM.
In turn, `CC(C)NC(=O)c1csc(-c2c(-c3ccc(F)cc3)noc2CNCCc2ccc(O)cc2)n1` [Example 1453] gave an IC50 of more than 1 µM.
Molecule `CC(C)NC(=O)c1csc(-c2c(-c3ccc(F)cc3)noc2CNCCOc2ccccc2)n1` [Example 1454] showed a concentration for half-maximal inhibition (IC50) of more than 1 µM.
`COc1ccccc1CNCc1onc(-c2ccc(F)cc2)c1-c1nc(C(=O)NC(C)C)cs1` [Example 1455]: the half-inhibitory concentration (IC50) was more than 1 µM.
`COc1ccc(CNCc2onc(-c3ccc(F)cc3)c2-c2nc(C(=O)NC(C)C)cs2)cc1` [Example 1456] showed a half-inhibitory concentration (IC50) of more than 1 µM.
Molecule `COc1cccc(CNCc2onc(-c3ccc(F)cc3)c2-c2nc(C(=O)NCC(C)C)cs2)c1` [Example 1457] yielded an IC50 of more than 1 µM.
The molecule `CC(C)NC(=O)c1csc(-c2c(-c3ccc(F)cc3)noc2CNCCc2ccc(F)cc2)n1` [Example 1458] came in with a 50% inhibitory concentration (IC50) of more than 1 µM.
The same measure for `CC(C)NC(=O)c1csc(-c2c(-c3ccc(F)cc3)noc2CNCCc2ccccc2F)n1` [Example 1459]: more than 1 µM; for `CC(C)NC(=O)c1csc(-c2c(-c3ccc(F)cc3)noc2CNCCc2cccc(F)c2)n1` [Example 1460]: more than 1 µM.
The same measure for `CC(C)NC(=O)c1csc(-c2c(-c3ccc(F)cc3)noc2CNCc2cccc(Cl)c2)n1` [Example 1461]: more than 1 µM; for `CC(C)NC(=O)c1csc(-c2c(-c3ccc(F)cc3)noc2CNCc2ccccc2Cl)n1` [Example 1462]: more than 1 µM; for `CC(C)NC(=O)c1csc(-c2c(-c3ccc(F)cc3)noc2CNCc2ccc(Cl)cc2)n1` [Example 1463]: more than 1 µM.
The molecule `CC(C)NC(=O)c1csc(-c2c(-c3ccc(F)cc3)noc2CNCCCN2CCCC2=O)n1` [Example 1464] returned a half-inhibitory concentration (IC50) not above 1 µM.
In the case of `CC(C)NC(=O)c1csc(-c2c(-c3ccc(F)cc3)noc2CNCc2ccc(F)cc2F)n1` [Example 1465] it was more than 1 µM; in that of `CC(C)NC(=O)c1csc(-c2c(-c3ccc(F)cc3)noc2CNCc2ccc(F)c(F)c2)n1` [Example 1466], more than 1 µM; in that of `CC(C)NC(=O)c1csc(-c2c(-c3ccc(F)cc3)noc2CNCc2cc(F)cc(F)c2)n1` [Example 1467], more than 1 µM.
In the case of `CC(C)NC(=O)c1csc(-c2c(-c3ccc(F)cc3)noc2CNCCCN2CCOCC2)n1` [Example 1468] it was more than 1 µM; in that of `CC(C)NC(=O)c1csc(-c2c(-c3ccc(F)cc3)noc2CNCCN(C(C)C)C(C)C)n1` [Example 1469], more than 1 µM; in that of `CC(C)NC(=O)c1csc(-c2c(-c3ccc(F)cc3)noc2CNC(C)CCc2ccccc2)n1` (centres unmarked) [Example 1470], more than 1 µM.
In the case of `CC(C)NC(=O)c1csc(-c2c(-c3ccc(F)cc3)noc2CNCc2ccc(C(C)C)cc2)n1` [Example 1471] it was more than 1 µM; in that of `CC(C)NC(=O)c1csc(-c2c(-c3ccc(F)cc3)noc2CNCc2ccc3c(c2)OCO3)n1` [Example 1472], more than 1 µM; in that of `COc1cccc(CCNCc2onc(-c3ccc(F)cc3)c2-c2nc(C(=O)NC(C)C)cs2)c1` [Example 1473], more than 1 µM.
With `CC(C)NC(=O)c1csc(-c2c(-c3ccc(F)cc3)noc2CN[C@H](CO)Cc2ccccc2)n1` [Example 1474], the 50% inhibitory concentration (IC50) is more than 1 µM.
In the case of `COc1ccc(CCNCc2onc(-c3ccc(F)cc3)c2-c2nc(C(=O)NC(C)C)cs2)cc1` [Example 1475], the IC50 is more than 1 µM.
In the case of `COc1ccccc1CCNCc1onc(-c2ccc(F)cc2)c1-c1nc(C(=O)NC(C)C)cs1` [Example 1476] it was more than 1 µM.
For the molecule `CCOc1ccccc1CNCc1onc(-c2ccc(F)cc2)c1-c1nc(C(=O)NC(C)C)cs1` [Example 1477], the IC50 is more than 1 µM.
The same measure for `CC(C)NC(=O)c1csc(-c2c(-c3ccc(F)cc3)noc2CNCCc2ccccc2Cl)n1` [Example 1478]: more than 1 µM; for `CC(C)NC(=O)c1csc(-c2c(-c3ccc(F)cc3)noc2CNCCc2ccc(Cl)cc2)n1` [Example 1479]: more than 1 µM.
For `CC(C)NC(=O)c1csc(-c2c(-c3ccc(F)cc3)noc2CNCCc2cccc(Cl)c2)n1` [Example 1480], the IC50 is more than 1 µM.
`CC(C)NC(=O)c1csc(-c2c(-c3ccc(F)cc3)noc2CNC2CC(C)(C)NC(C)(C)C2)n1` [Example 1481] had an IC50 of more than 1 µM.
The molecule `CCN(CC)CCCC(C)NCc1onc(-c2ccc(F)cc2)c1-c1nc(C(=O)NC(C)C)cs1` (centres unmarked) [Example 1482] gave a half-maximal inhibitory concentration (IC50) of more than 1 µM.
The same measure for `CC(C)NC(=O)c1csc(-c2c(-c3ccc(F)cc3)noc2CNCc2ccc(F)c(Cl)c2)n1` [Example 1483]: more than 1 µM; for `CC(C)NC(=O)c1csc(-c2c(-c3ccc(F)cc3)noc2CNCCNC(=O)OC(C)(C)C)n1` [Example 1484]: more than 1 µM.
The same measure for `CC(C)NC(=O)c1csc(-c2c(-c3ccc(F)cc3)noc2CNCCc2c[nH]c3ccccc23)n1` [Example 1485]: more than 1 µM.
With `CC(C)NC(=O)c1csc(-c2c(-c3ccc(F)cc3)noc2CNCc2ccc(C(C)(C)C)cc2)n1` [Example 1486], the IC50 is more than 1 µM.
The molecule `CC(C)NC(=O)c1csc(-c2c(-c3ccc(F)cc3)noc2CNCCCN(C)c2ccccc2)n1` [Example 1487] returned a half-inhibitory concentration (IC50) of more than 1 µM.
